In US20240208968A1, “ALPHA V BETA 6 AND ALPHA V BETA 1 INTEGRIN INHIBITORS AND USES THEREOF” (DiCE Molecules SV, Inc., priority 2021, published 2024):

How the values were obtained:
αvβ1 = αvβ1 (Homo sapiens, UniProt P05556+P06756); assay: Solid Phase Integrin αvβ1 Assay; format: binding
Summary of the method: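 Compound competes for αvβ1 binding to immobilized TGFb1-LAP (1 µg/mL coat) in Mn2+ (1 mM MnCl2), 2% BSA binding buffer over 90 min at room temperature, integrin added at 0.2 µg/mL. Read-out: streptavidin-HRP/TMB; IC50 from Levenberg-Marquardt four-parameter fit.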

αvβ6 = αvβ6 (Homo sapiens, UniProt P06756+P18564); assay: Solid Phase Integrin αvβ6 Assay; format: binding
Summary of the method: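 Inhibition of αvβ6 binding to immobilized recombinant TGFb1-LAP (1 μg/mL coating), 1 h at room temperature with 1 mM MnCl2 in BSA/TBST buffer, integrin diluted to 0.2 μg/mL before addition. Streptavidin-HRP/TMB read-out; four-parameter logistic fitting gave IC50.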

Chain of αvβ6 (P06756 31-992 limits assumed): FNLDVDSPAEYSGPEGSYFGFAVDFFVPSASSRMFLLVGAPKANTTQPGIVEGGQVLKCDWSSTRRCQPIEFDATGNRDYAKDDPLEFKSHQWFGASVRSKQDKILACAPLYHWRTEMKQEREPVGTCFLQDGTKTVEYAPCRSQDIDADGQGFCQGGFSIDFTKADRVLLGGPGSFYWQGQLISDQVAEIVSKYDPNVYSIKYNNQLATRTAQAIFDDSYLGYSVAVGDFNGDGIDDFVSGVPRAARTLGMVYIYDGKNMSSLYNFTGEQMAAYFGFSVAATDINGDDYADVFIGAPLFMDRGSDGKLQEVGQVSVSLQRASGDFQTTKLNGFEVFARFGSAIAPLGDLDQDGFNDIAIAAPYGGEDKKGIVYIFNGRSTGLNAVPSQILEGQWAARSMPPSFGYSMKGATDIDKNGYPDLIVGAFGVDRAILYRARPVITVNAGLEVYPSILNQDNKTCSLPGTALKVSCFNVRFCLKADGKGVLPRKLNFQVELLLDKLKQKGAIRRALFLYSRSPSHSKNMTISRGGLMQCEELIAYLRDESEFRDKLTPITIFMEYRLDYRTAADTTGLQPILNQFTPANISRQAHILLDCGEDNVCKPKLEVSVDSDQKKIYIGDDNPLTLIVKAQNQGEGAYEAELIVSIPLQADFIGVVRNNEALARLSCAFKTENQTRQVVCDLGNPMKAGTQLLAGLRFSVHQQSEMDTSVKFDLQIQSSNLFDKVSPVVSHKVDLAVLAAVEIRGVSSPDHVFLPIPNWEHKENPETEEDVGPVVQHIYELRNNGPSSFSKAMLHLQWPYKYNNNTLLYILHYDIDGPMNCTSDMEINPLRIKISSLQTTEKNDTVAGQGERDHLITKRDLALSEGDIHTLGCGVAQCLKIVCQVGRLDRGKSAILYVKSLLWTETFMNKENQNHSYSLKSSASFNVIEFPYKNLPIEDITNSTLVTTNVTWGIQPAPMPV
Chain of αvβ6 (P18564 22-707 limits assumed): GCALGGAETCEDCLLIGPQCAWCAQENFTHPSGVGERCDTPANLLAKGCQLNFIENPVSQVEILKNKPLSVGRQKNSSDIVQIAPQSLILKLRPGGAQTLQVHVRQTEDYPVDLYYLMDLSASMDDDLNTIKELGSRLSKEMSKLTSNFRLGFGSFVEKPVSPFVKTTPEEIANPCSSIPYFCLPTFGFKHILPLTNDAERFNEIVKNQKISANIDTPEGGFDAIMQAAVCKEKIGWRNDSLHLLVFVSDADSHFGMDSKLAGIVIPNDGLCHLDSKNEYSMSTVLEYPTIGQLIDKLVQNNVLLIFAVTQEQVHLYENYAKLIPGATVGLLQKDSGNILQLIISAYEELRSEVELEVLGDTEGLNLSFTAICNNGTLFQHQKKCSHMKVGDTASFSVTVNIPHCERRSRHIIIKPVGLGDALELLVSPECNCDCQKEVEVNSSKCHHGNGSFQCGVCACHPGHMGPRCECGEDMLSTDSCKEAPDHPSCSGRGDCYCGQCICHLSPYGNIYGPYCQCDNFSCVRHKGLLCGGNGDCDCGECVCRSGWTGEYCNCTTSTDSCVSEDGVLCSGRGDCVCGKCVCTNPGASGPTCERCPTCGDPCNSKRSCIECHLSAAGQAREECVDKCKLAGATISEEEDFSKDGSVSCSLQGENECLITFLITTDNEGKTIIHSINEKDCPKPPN
Chain of αvβ1 (P06756 31-992 limits assumed): as the sequence (P06756 31-992 limits assumed) above
Chain of αvβ1 (P05556 21-728 limits assumed): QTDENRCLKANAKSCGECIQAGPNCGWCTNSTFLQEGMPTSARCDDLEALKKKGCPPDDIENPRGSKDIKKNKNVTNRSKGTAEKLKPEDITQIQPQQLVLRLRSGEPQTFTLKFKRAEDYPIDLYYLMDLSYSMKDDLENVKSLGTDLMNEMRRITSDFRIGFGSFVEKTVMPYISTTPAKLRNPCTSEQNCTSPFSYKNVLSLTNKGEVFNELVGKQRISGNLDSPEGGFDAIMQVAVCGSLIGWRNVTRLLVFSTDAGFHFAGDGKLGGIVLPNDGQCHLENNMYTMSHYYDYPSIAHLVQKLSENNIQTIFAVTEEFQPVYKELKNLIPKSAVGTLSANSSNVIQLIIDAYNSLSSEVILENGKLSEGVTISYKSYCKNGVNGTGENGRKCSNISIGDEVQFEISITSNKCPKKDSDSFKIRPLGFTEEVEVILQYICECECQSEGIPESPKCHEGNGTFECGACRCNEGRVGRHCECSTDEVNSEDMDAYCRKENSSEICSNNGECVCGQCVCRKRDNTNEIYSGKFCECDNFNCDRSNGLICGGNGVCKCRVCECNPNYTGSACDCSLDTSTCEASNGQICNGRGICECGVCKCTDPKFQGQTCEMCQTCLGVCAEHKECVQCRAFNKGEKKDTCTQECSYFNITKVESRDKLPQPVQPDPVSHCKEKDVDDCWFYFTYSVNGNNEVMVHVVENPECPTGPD

| IC50 (αvβ1) [µM] | IC50 (αvβ6) [µM] | SMILES |
| --- | --- | --- |
| > 1 | > 1 | O=C(NC1([C@H](C(=O)O)c2cccc(-c3ccccc3)c2)CC1)[C@@H]1CCCN(CCCc2ccc3c(n2)NCCC3)C1 [Compound 301-A, 2-([1,1′-biphenyl]-3-yl)-2-(1-((R)-1-(3-(5,6,7,8-tetrahydro-1,8-naphthyridin-2-yl)propyl)piperidine-3-carboxamido)cyclopropyl)acetic acid] |
| > 1 | > 1 | O=C(NC1([C@@H](C(=O)O)c2cccc(-c3ccccc3)c2)CC1)[C@@H]1CCCN(CCCc2ccc3c(n2)NCCC3)C1 [Compound 301-B, 2-([1,1′-biphenyl]-3-yl)-2-(1-((R)-1-(3-(5,6,7,8-tetrahydro-1,8-naphthyridin-2-yl)propyl)piperidine-3-carboxamido)cyclopropyl)acetic acid] |
| < 0.1 | < 0.1 | O=C(NC[C@@H](C(=O)O)c1cccc(Br)c1)[C@@H]1CCCN(CCCc2ccc3c(n2)NCCC3)C1 [Compound 302] |
| < 0.1 | < 0.1 | O=C(NC[C@H](C(=O)O)c1cccc(Br)c1)[C@@H]1CCCN(CCCc2ccc3c(n2)NCCC3)C1 [Compound 303] |
| < 0.1 | < 0.1 | O=C(NC[C@H](NC(=O)[C@@H]1CC2CCC1CC2)C(=O)O)[C@@H]1CCCN(CCCc2ccc3c(n2)NCCC3)C1 [Compound 304] |
| < 0.1 | < 0.1 | O=C(NC[C@H](NC(=O)[C@H]1CC2CCC1CC2)C(=O)O)[C@@H]1CCCN(CCCc2ccc3c(n2)NCCC3)C1 [Compound 305] |
| 0.1 to 1 | 0.1 to 1 | O=C(NC[C@H](C(=O)O)c1cc(F)cc(-c2ccccc2)c1)[C@@H]1CCCN(CCCc2ccc3c(n2)NCCC3)C1 [Compound 306] |
| < 0.1 | < 0.1 | O=C(NC[C@@H](C(=O)O)c1cc(F)cc(-c2ccccc2)c1)[C@@H]1CCCN(CCCc2ccc3c(n2)NCCC3)C1 [Compound 307] |
| 0.1 to 1 | 0.1 to 1 | O=C(NC[C@@H](C(=O)O)c1ccc(F)c(-c2ccccc2)c1)[C@@H]1CCCN(CCCc2ccc3c(n2)NCCC3)C1 [Compound 308] |
| < 0.1 | < 0.1 | O=C(NC[C@H](C(=O)O)c1ccc(F)c(-c2ccccc2)c1)[C@@H]1CCCN(CCCc2ccc3c(n2)NCCC3)C1 [Compound 309] |
| < 0.1 | < 0.1 | O=C(N[C@@H](CNC(=O)[C@@H]1CCCN(CCCc2ccc3c(n2)NCCC3)C1)C(=O)O)C1CCOCC1 [Compound 311] |
| < 0.1 | < 0.1 | O=C(N[C@@H](CNC(=O)[C@@H]1CCCN(CCCc2ccc3c(n2)NCCC3)C1)C(=O)O)c1ccncc1 [Compound 312] |
| < 0.1 | < 0.1 | O=C(N[C@@H](CNC(=O)[C@@H]1CCCN(CCCc2ccc3c(n2)NCCC3)C1)C(=O)O)c1nnc(C2CC2)o1 [Compound 313] |
| 0.1 to 1 | 0.1 to 1 | O=C(NC[C@@H](C(=O)O)c1cccc2c1cnn2CC1CC1)[C@@H]1CCCN(CCCc2ccc3c(n2)NCCC3)C1 [Compound 314] |
| < 0.1 | < 0.1 | O=C(NC[C@H](C(=O)O)c1cccc2c1cnn2CC1CC1)[C@@H]1CCCN(CCCc2ccc3c(n2)NCCC3)C1 [Compound 315] |
| 0.1 to 1 | > 1 | O=C(NC[C@@H](C(=O)O)c1cccc2nn(CC3CC3)cc12)[C@@H]1CCCN(CCCc2ccc3c(n2)NCCC3)C1 [Compound 316] |
| < 0.1 | < 0.1 | O=C(NC[C@H](C(=O)O)c1cccc2nn(CC3CC3)cc12)[C@@H]1CCCN(CCCc2ccc3c(n2)NCCC3)C1 [Compound 317] |
| 0.1 to 1 | > 1 | O=C(NC[C@H](C(=O)O)c1cccc2n[nH]cc12)[C@@H]1CCCN(CCCc2ccc3c(n2)NCCC3)C1 [Compound 318] |
| < 0.1 | < 0.1 | O=C(NC[C@@H](C(=O)O)c1cccc2n[nH]cc12)[C@@H]1CCCN(CCCc2ccc3c(n2)NCCC3)C1 [Compound 319] |
| > 1 | > 1 | O=C(NC[C@@H](C(=O)O)c1cccc2cnn([C@H]3CCOC3)c12)[C@@H]1CCCN(CCCc2ccc3c(n2)NCCC3)C1 [Compound 320] |
| < 0.1 | 0.1 to 1 | O=C(NC[C@H](C(=O)O)c1cccc2cnn([C@H]3CCOC3)c12)[C@@H]1CCCN(CCCc2ccc3c(n2)NCCC3)C1 [Compound 321] |
| 0.1 to 1 | > 1 | O=C(NC[C@@H](C(=O)O)c1cccc2cnn([C@@H]3CCOC3)c12)[C@@H]1CCCN(CCCc2ccc3c(n2)NCCC3)C1 [Compound 322] |
| < 0.1 | < 0.1 | O=C(NC[C@H](C(=O)O)c1cccc2cnn([C@@H]3CCOC3)c12)[C@@H]1CCCN(CCCc2ccc3c(n2)NCCC3)C1 [Compound 323] |
| < 0.1 | > 1 | O=C(NC[C@@H](C(=O)O)c1cnc2[nH]ccc2c1)[C@@H]1CCCN(CCCc2ccc3c(n2)NCCC3)C1 [Compound 324] |
| < 0.1 | < 0.1 | O=C(NC[C@H](C(=O)O)c1cnc2[nH]ccc2c1)[C@@H]1CCCN(CCCc2ccc3c(n2)NCCC3)C1 [Compound 325] |
| < 0.1 | < 0.1 | O=C(NC[C@@H](C(=O)O)c1cnc2c(ccn2CC2CC2)c1)[C@@H]1CCCN(CCCc2ccc3c(n2)NCCC3)C1 [Compound 326] |

| IC50 (αvβ1) [µM] | IC50 (αvβ6) [µM] | SMILES |
| --- | --- | --- |
| < 0.1 | < 0.1 | O=C(NC[C@H](C(=O)O)c1cnc2c(ccn2CC2CC2)c1)[C@@H]1CCCN(CCCc2ccc3c(n2)NCCC3)C1 [Compound 327] |
| 0.1 to 1 | 0.1 to 1 | O=C(O)C[C@@H](NC(=O)[C@@H]1CCCN(CCCc2ccc3c(n2)NCCC3)C1)c1ccc2c(c1)C1(CC2)CC1 [Compound 328] |
| > 1 | > 1 | O=C(O)[C@H](CCO[C@@H]1CCCN(CCCc2ccc3c(n2)NCCC3)C1)c1cccc(-c2ccccc2)c1 [Compound 329] |
| > 1 | < 0.1 | O=C(O)[C@@H](CCO[C@@H]1CCCN(CCCc2ccc3c(n2)NCCC3)C1)c1cccc(-c2ccccc2)c1 [Compound 330] |
| < 0.1 | < 0.1 | O=C(O)[C@@H](CCO[C@@H]1CCCN(CCCc2ccc3c(n2)NCCC3)C1)NC(=O)C12CCC(CC1)CC2 [Compound 331] |
| > 1 | 0.1 to 1 | O=C(O)[C@@H](CCO[C@@H]1CCCN(CCCc2ccc3c(n2)NCCC3)C1)Nc1ncnc2ccccc12 [Compound 332] |
| 0.1 to 1 | 0.1 to 1 | O=C(O)[C@H](CCO[C@@H]1CCCN(CCCc2ccc3c(n2)NCCC3)C1)NC(=O)C12CCC(CC1)CC2 [Compound 333] |
| < 0.1 | < 0.1 | O=C(O)[C@H](CCO[C@@H]1CCCN(CCCc2ccc3c(n2)NCCC3)C1)Nc1ncnc2ccccc12 [Compound 334] |
| 0.1 to 1 | 0.1 to 1 | O=C(O)CC(CO[C@@H]1CCCN(CCc2ccc3c(n2)NCCC3)C1)c1ccccc1 (some centres unmarked) [Compound 335] |
| > 1 | 0.1 to 1 | O=C(O)CC(CO[C@@H]1CCCN(Cc2ccc3c(n2)NCCC3)C1)c1ccccc1 (some centres unmarked) [Compound 336] |
| 0.1 to 1 | 0.1 to 1 | O=C(O)CC(CO[C@H]1CCCN(CCCc2ccc3c(n2)NCCC3)C1)c1ccccc1 (some centres unmarked) [Compound 337] |
| < 0.1 | < 0.1 | O=C(N[C@@H](CNC(=O)[C@@H]1CCCN(CCCc2ccc3c(n2)NCCC3)C1)C(=O)O)C1CC2CCC1CC2 (some centres unmarked) [Compound 338] |
| < 0.1 | < 0.1 | O=C(O)CC(NC(=O)[C@@H]1CCCN(CCCc2ccc3c(n2)NCCC3)C1)c1cccc2ccccc12 (some centres unmarked) [Compound 339] |
| 0.1 to 1 | 0.1 to 1 | O=C(NC[C@@H](C(=O)O)c1ccccc1-c1ccccc1)[C@@H]1CCCN(CCCc2ccc3c(n2)NCCC3)C1 [Compound 340] |
| > 1 | > 1 | O=C(NC[C@H](C(=O)O)c1ccccc1-c1ccccc1)[C@@H]1CCCN(CCCc2ccc3c(n2)NCCC3)C1 [Compound 341] |
| < 0.1 | < 0.1 | O=C(NC[C@H](C(=O)O)c1ccc(-c2ccccc2)cc1)[C@@H]1CCCN(CCCc2ccc3c(n2)NCCC3)C1 [Compound 342] |
| < 0.1 | < 0.1 | O=C(O)C[C@@H](NC(=O)[C@@H]1CCCN(CCCc2ccc3c(n2)NCCC3)C1)c1cccc(C2CC2)c1F [Compound 344] |
| > 1 | > 1 | O=C(O)C[C@@H](NC(=O)[C@@H]1CCCN(CCCc2ccc3c(n2)NCCC3)C1)c1ccccc1C1CC1 [Compound 345] |
| < 0.1 | < 0.1 | C[C@@H]1CC[C@H](C(=O)N[C@@H](CC(=O)O)c2ccccc2)CN1CCCc1ccc2c(n1)NCCC2 [Compound 346] |
| < 0.1 | < 0.1 | O=C(O)C[C@@H](NC(=O)[C@@H]1CCCN(CCCc2ccc3c(n2)NCCC3)C1)c1cc(F)cc(C2CC2)c1 [Compound 347] |
| < 0.1 | < 0.1 | Nc1nnc(C(=O)N[C@@H](CNC(=O)[C@@H]2CCCN(CCCc3ccc4c(n3)NCCC4)C2)C(=O)O)o1 [Compound 348] |
| > 1 | > 1 | O=C(O)C[C@H](O[C@@H]1CCCN(CCCc2ccc3c(n2)NCCC3)C1)c1ccccc1 [Compound 349] |
| > 1 | > 1 | O=C(O)[C@H](CO[C@@H]1CCCN(CCCc2ccc3c(n2)NCCC3)C1)c1ccccc1 [Compound 350] |
| > 1 | > 1 | O=C(O)C[C@@H](O[C@@H]1CCCN(CCCc2ccc3c(n2)NCCC3)C1)c1ccccc1 [Compound 351] |
| > 1 | > 1 | O=C(O)[C@@H](CO[C@@H]1CCCN(CCCc2ccc3c(n2)NCCC3)C1)c1ccccc1 [Compound 352] |
| > 1 | 0.1 to 1 | O=C(O)C[C@H](CO[C@@H]1CCCN(CCc2ccc3c(n2)NCCC3)C1)c1ccccc1 [Compound 353] |
